Legend:
[1] = known effect of ritonavir, FDA approved Kaletra Drug Label May 2012; cited from earlier work
[2] = design: species or system HCV patients (human); conditions: in vivo
Text: Ritonavir-boosted HIV protease inhibitors are associated with increases in serum lipids. See FIG. 1, where LPV refers to lopinavir, “/r” refers to co-administration with ritonavir (e.g., LPV/r refers to lopinavir co-administered with ritonavir). DRV refers to darunavir, ATV refers to atazanavir, FPV refers to fosamprenavir, FTC refers to emtricitabine, TDF refers to tenofovir disoproxil fumarate, […], 3TC refers to lamivudine, TC refers to total cholesterol, and TG refers to total triglycerides. These increase in cholesterol and triglycerides may be related to inhibition of the proteasome, which is involved in degradation of proteins related to lipid metabolism. However, the impact of ritonavir-boosted HCV treatments on lipid levels has not been studied. The purpose of this Example was to examine the lipid levels of HCV patients during 12 weeks of treatment with ritonavir-containing, interferon-free regimens. […]
Fasting total cholesterol (TC) and triglycerides (TG) were measured at each study visit. The number of subjects with baseline low or normal TC or TG who shifted to high TC or TG were calculated using NCEP cut-offs. Lipid fractions were not measured.

Compound: CC(C)c1nc(CN(C)C(=O)N[C@H](C(=O)N[C@@H](Cc2ccccc2)C[C@H](O)[C@H](Cc2ccccc2)NC(=O)OCc2cncs2)C(C)C)cs1 [ritonavir]
- cholesterol and triglyceride levels [1]: elevated cholesterol and triglyceride levels
- total cholesterol and triglyceride levels [2]: not elevated

— patent US20140024613A1, “Methods for Treating HCV” (AbbVie Inc., priority 2012, published 2014)
